Results as given in US20220257592A1, “METHODS OF TREATING CANCER” (HOFFMANN-LA ROCHE INC., priority 2019, published 2022).

Experiment: Clinical trial safety, ALKA, STARTRK-1, STARTRK-2, STARTRK-NG (interim, N=355)
Details: for Balance disorder / Confusional state / Dizziness / Headache / Paresthesia: CNS metastases
[1] = no prior CNS irradiation (N=48)
[2] = among the 32 patients with hyperuricemic adverse reactions
[3] = among the 36 patients with mood disorders
[4] = among the 51 patients with sleep disturbances
[5] = among the 96 patients with cognitive impairment
[6] = among the 136 patients who experienced dizziness
[7] = clinically relevant adverse reactions in ≤10% of patients

SMILES: CN1CCN(c2ccc(C(=O)Nc3n[nH]c4ccc(Cc5cc(F)cc(F)c5)cc34)c(NC3CCOCC3)c2)CC1 [Entrectinib, N-[5-(3,5-difluorobenzyl)-1H-indazol-3-yl]-4-(4-methyl-piperazin-1-yl)-2-(tetrahydro-pyran-4-ylamino)-benzamide]
- CHF, median time to onset (12 patients with CHF, range: 11 days to 12 months): 2 months
- Congestive heart failure (355 patients): 3.4%
- Congestive heart failure, Grade 3 (355 patients): 2.3%
- Hyperuricemia reported as adverse reactions with symptoms, as well as elevated uric acid levels (355 patients): 9%
- Increased ALT of any grade (355 patients): 36%
- Increased AST of any grade (355 patients): 42%
- Balance disorder [1]: 4%
- Confusional state [1]: 2%
- Dizziness [1]: 31%
- Headache [1]: 13%
- Paresthesia [1]: 6%
- Balance disorder (prior CNS irradiation (N=90)): 13%
- Confusional state (prior CNS irradiation (N=90)): 11%
- Dizziness (prior CNS irradiation (N=90)): 38%
- Headache (prior CNS irradiation (N=90)): 21%
- Paresthesia (prior CNS irradiation (N=90)): 20%
- Abdominal pain, All Grades (N = 355): 16%
- Arthralgia, All Grades (N = 355): 21%
- Ataxia, All Grades (N = 355): 17%
- Back pain, All Grades (N = 355): 12%
- Cognitive impairment, All Grades (N = 355): 27%
- Constipation, All Grades (N = 355): 46%
- Cough, All Grades (N = 355): 24%
- Decreased appetite, All Grades (N = 355): 13%
- Dehydration, All Grades (N = 355): 10%
- Diarrhea, All Grades (N = 355): 35%
- Dizziness, All Grades (N = 355): 38%
- Dysesthesia, All Grades (N = 355): 34%
- Dysgeusia, All Grades (N = 355): 44%
- Dyspnea, All Grades (N = 355): 30%
- Edema, All Grades (N = 355): 40%
- Fatigue, All Grades (N = 355): 48%
- Headache, All Grades (N = 355): 18%
- Hypotension, All Grades (N = 355): 18%
- Increased weight, All Grades (N = 355): 25%
- Lung infection, All Grades (N = 355): 10%
- Mood disorders, All Grades (N = 355): 10%
- Muscular weakness, All Grades (N = 355): 12%
- Myalgia, All Grades (N = 355): 28%
- Nausea, All Grades (N = 355): 34%
- Pain in extremity, All Grades (N = 355): 11%
- Peripheral sensory neuropathy, All Grades (N = 355): 18%
- Pyrexia, All Grades (N = 355): 21%
- Rash, All Grades (N = 355): 11%
- Sleep (sleep disturbances), All Grades (N = 355): 14%
- Urinary tract infection, All Grades (N = 355): 13%
- Vision disorders, All Grades (N = 355): 21%
- Vomiting, All Grades (N = 355): 24%
- Abdominal pain, Grade ≥3 (N = 355, Grades 3-5): 0.6%
- Arthralgia, Grade ≥3 (N = 355, Grades 3-5): 0.6%
- Ataxia, Grade ≥3 (N = 355, Grades 3-5): 0.8%
- Back pain, Grade ≥3 (N = 355, Grades 3-5): 1%
- Cognitive impairment, Grade ≥3 (N = 355, Grades 3-5): 4.5%
- Constipation, Grade ≥3 (N = 355, Grades 3-5): 0.6%
- Cough, Grade ≥3 (N = 355, Grades 3-5): 0.3%
- Decreased appetite, Grade ≥3 (N = 355, Grades 3-5): 0.3%
- Dehydration, Grade ≥3 (N = 355, Grades 3-5): 1.1%
- Diarrhea, Grade ≥3 (N = 355, Grades 3-5): 2.0%
- Dizziness, Grade ≥3 (N = 355, Grades 3-5): 0.8%
- Dysesthesia, Grade ≥3 (N = 355, Grades 3-5): 0.3%
- Dysgeusia, Grade ≥3 (N = 355, Grades 3-5): 0.3%
- Edema, Grade ≥3 (N = 355, Grades 3-5): 1.1%
- Fatigue, Grade ≥3 (N = 355, Grades 3-5): 5%
- Headache, Grade ≥3 (N = 355, Grades 3-5): 0.3%
- Hypotension, Grade ≥3 (N = 355, Grades 3-5): 2.8%
- Increased weight, Grade ≥3 (N = 355, Grades 3-5): 7%
- Mood disorders, Grade ≥3 (N = 355, Grades 3-5): 0.6%
- Muscular weakness, Grade ≥3 (N = 355, Grades 3-5): 0.8%
- Myalgia, Grade ≥3 (N = 355, Grades 3-5): 1.1%
- Nausea, Grade ≥3 (N = 355, Grades 3-5): 0.3%
- Pain in extremity, Grade ≥3 (N = 355, Grades 3-5): 0.3%
- Peripheral sensory neuropathy, Grade ≥3 (N = 355, Grades 3-5): 1.1%
- Pyrexia, Grade ≥3 (N = 355, Grades 3-5): 0.8%
- Rash, Grade ≥3 (N = 355, Grades 3-5): 0.8%
- Sleep (sleep disturbances), Grade ≥3 (N = 355, Grades 3-5): 0.6%
- Urinary tract infection, Grade ≥3 (N = 355, Grades 3-5): 2.3%
- Vision disorders, Grade ≥3 (N = 355, Grades 3-5): 0.8%
- Vomiting, Grade ≥3 (N = 355, Grades 3-5): 0.8%
- CHF resolved following interruption or discontinuation and medical management (among the 12 patients with CHF): 50%
- entrectinib discontinued due to CHF (among the 12 patients with CHF): 17%
- entrectinib interrupted due to CHF (among the 12 patients with CHF): 50%
- Dose interruption due to hyperuricemia [2]: 6%
- Dose reduction due to hyperuricemia [2]: 6%
- Required urate-lowering medication [2]: 34%
- Discontinuation due to mood disorders [3]: no patients discontinued
- Dose interruption due to mood disorders [3]: 6%
- Dose reduction due to mood disorders [3]: 6%
- Discontinuation due to sleep disturbances [4]: no patients discontinued
- Dose reduction due to sleep disturbances [4]: 6%
- Discontinued entrectinib due to cognitive adverse reactions [5]: 1%
- Dose interruption due to cognitive adverse reactions [5]: 18%
- Dose reduction due to cognitive adverse reactions [5]: 13%
- Discontinued entrectinib due to dizziness [6]: 0.7%
- Dose interruption due to dizziness [6]: 7%
- Dose reduction due to dizziness [6]: Ten
- Grade 3 dizziness [6]: 2.2%
- Dysphagia [7]: 10%
- Fall [7]: 8%
- Fractures [7]: 6%
- Hypoxia [7]: 4.2%
- Pleural effusion [7]: 8%
- Pulmonary embolism [7]: 3.9%
- QT prolongation [7]: 3.1%
- Syncope [7]: 3.9%
- Increased AST or ALT leading to dose interruptions (first value of 'respectively'): 0.8%
- Cognitive impairment: amnesia (human, in vivo): 2.5%
- Cognitive impairment: aphasia (human, in vivo): 2.3%
- Cognitive impairment: cognitive disorders (human, in vivo): 8%
- Cognitive impairment: confusional state (human, in vivo): 7%
- Cognitive impairment: delirium (human, in vivo): 0.8%
- Cognitive impairment: disturbance in attention (human, in vivo): 4.8%
- Cognitive impairment: hallucinations (human, in vivo): 1.1%
- Cognitive impairment: memory impairment (human, in vivo): 3.7%
